Reference: publication PMC11478076, “Synthetic Routes to 2-aryl-1H-pyrrolo[2,3-b]pyridin-4-amines: Cross-Coupling and Challenges in SEM-Deprotection” (Molecules, 2024)
Several values for one entry are separate records, joined by “and”; a condition that tells them apart may be missing. Equal values may be shown once. Read-outs that look alike come from different tables or passages of the source.

Assays:
[1] = biological target: T1, CSF1R (Homo sapiens, UniProt P07333); assay: CSF1R enzymatic inhibitory assay, LANCE Ultra TR-FRET (Perkin Elmer); assay type: biochemical
T1 sequence (P07333 20-972): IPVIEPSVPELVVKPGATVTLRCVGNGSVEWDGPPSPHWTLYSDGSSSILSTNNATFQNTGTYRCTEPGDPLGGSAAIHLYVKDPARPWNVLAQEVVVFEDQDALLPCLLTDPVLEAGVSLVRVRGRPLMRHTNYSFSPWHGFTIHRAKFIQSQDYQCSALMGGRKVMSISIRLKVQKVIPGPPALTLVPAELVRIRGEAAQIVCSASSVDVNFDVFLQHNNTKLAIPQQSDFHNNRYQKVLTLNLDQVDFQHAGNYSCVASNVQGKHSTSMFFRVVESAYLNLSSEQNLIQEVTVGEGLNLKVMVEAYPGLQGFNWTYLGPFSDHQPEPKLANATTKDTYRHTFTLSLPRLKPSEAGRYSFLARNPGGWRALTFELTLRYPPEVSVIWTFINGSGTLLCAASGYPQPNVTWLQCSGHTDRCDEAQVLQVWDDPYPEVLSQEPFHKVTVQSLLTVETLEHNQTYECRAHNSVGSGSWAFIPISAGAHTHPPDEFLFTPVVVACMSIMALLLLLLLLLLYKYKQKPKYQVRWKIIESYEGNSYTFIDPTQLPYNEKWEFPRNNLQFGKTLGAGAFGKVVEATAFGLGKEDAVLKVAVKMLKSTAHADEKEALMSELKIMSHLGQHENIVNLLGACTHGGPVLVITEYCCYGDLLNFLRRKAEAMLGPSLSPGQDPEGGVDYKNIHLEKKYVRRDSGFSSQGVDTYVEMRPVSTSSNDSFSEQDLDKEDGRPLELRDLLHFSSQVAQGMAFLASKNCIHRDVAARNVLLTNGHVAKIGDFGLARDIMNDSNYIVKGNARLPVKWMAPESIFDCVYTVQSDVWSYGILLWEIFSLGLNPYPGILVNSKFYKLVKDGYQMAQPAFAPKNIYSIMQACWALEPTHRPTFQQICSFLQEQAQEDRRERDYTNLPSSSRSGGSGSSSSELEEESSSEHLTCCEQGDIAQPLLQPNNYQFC
Protocol: (§1) CSF1R enzymatic inhibitory assay
(§2) The compounds were supplied in a 10 mM DMSO solution, and enzymatic CSF1R inhibition potency was determined by Invitrogen (ThermoFisher) using their Z’-LYTE® assay technology.[11] The assay is based on fluorescence resonance energy transfer (FRET). In the primary reaction, the kinase transfers the gamma-phosphate of ATP to a single tyrosine residue in a synthetic FRET-peptide. In the secondary reaction, a site-specific protease recognizes and cleaves non-phosphorylated FRET-peptides. Thus, phosphorylation of FRET-peptides suppresses cleavage by the development reagent. Cleavage disrupts FRET between the donor (i.e. coumarin) and acceptor (i.e., fluorescein) fluorophores on the FRET-peptide, whereas uncleaved, phosphorylated FRET-peptides maintain FRET. […]
(§3) The TR-FRET-based LANCE Ultra assay (Perkin Elmer) was used to determine IC50 values for various CSF1R inhibitors. Kinase activity and inhibition in this assay was measured as […]
recommended by the manufacturer. […] Subsequently, phosphorylation or inhibition was detected by addition of specific europium (Eu)-labelled anti-phospho-antibodies (2 nM), which upon binding to the phospho-peptide give rise to a FRET signal. The FRET signal was recorded in a time-resolved manner in a Perkin Elmer EnVision reader. […] All assay data was analysed with the Quattro Workflow software package from Quattro Research.

[2] = biological target: T1, CSF1R; assay: CSF1R enzymatic inhibitory assay, Z'-LYTE (Invitrogen/ThermoFisher); assay type: biochemical; settings: ATP level equal to KM 10 μM, two titration curves (20 data points)
Protocol: Figure 2 CSF1R inhibition (IC50 curves) for the 7-azaindole 3c (red squares), pyrrolopyrimidine 1 (blue circles) and thienopyrimidine 2 (green triangles). The solid lines are regression curves generated from 20 data points each. The assay was performed at ThermoFisher (Invitrogen, San Diego, CA, USA) using the Z-lyte technology; ATP level was equal to KM.
as §1, §2, §3

[3] = biological target: T1, CSF1R; set-up: method as in Aarhus et al. [19]; settings: LANCE Ultra assay; ATP level 25 μM; previously reported data ref Aarhus et al. [19]; cited from earlier work
[4] = biological target: T1, CSF1R; set-up: method as in PMID 38141285; settings: cited from earlier work

## CN(Cc1ccccc1)c1ccnc2[nH]c(-c3ccccc3)cc12 [3a, N-Benzyl-N-methyl-2-phenyl-1H-pyrrolo-[2,3-b]pyridin-4-amine]
other
  melting point: 191 to 193 °C

## CN(Cc1ccccc1)c1ccnc2[nH]c(-c3ccc(CO)cc3)cc12 [3c, (4-(4-(Benzyl(methyl)amino)-1H-pyrrolo[2,3-b]pyridin-2-yl)phenyl)methanol]
[1]; CSF1R assay with higher ATP concentration (25 μM)
  fold lower CSF1R activity compared to the corresponding pyrrolopyrimidine (reference inhibitor 1): 20 fold
[1]; LANCE Ultra assay, ATP level 25 μM
  IC50: 105 nM
[2]
  IC50: 3 nM and 3.1 nM
other
  melting point: 200 to 201 °C

## COc1ccc(-c2[nH]c3nccc4c3c2Cc2ccccc2CN4C)cc1 [16b, 1-(4-Methoxyphenyl)-6-methyl-2,6,7,12-tetrahydro-2,3,6-triazabenzo[6,7]cycloocta[1,2,3-cd]indene]
other
  melting point: 287 to 289 °C (dec.)

## CN(Cc1ccccc1)c1ncnc2sc(-c3ccc(CO)cc3)cc12 [compound 2]
[3]
  IC50: 450 nM
[4]
  CSF1R inhibitory activity in enzymatic studies (in words): far less active
